Data from patent US8962611B2, “Substituted imidazopyridines as HDM2 inhibitors” (Merck Sharp & Dohme Corp., priority 2012, dated 2015).

Target: HDM2 (residues 17 to 125) (Homo sapiens (Human), UniProt Q00987)
Test: HDM2 FRET assay (inhibition of p53 peptide binding to HDM2)
Conditions: read-out: FRET IC50; 0.5 nM HDM2, 3 nM FITC peptide, two hour incubation; values rounded to the nearest integer
Excerpt: Methods: An HDM2 FRET assay was developed to assess the compounds' inhibitory activity towards binding of p53 protein. […] Ratio of em520/em495 was used to calculate % inhibition and to obtain IC50 with 4-parameter logistic equation.
Concentration of compound was plotted against em520/Cem495 ratio signal. To generate IC50 values, the dose-response curves were fitted to a standard sigmoidal curve and IC50 values were derived by nonlinear regression analysis.

Chain of HDM2 (residues 17 to 125) (Q00987 17-125): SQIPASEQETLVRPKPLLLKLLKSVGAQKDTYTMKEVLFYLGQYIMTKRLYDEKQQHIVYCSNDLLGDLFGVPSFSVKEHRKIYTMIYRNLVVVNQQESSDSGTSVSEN

**Q.** For C[C@H]1CC[C@H](Cn2c(N3CCC[C@H]3c3nccs3)nc3cc(-c4noc(=O)[nH]4)nc(-c4cncc(Cl)c4)c32)CC1 [Example 3.81, 3-{4-(5-chloropyridin-3-yl)-3-[(trans-4-methylcyclohexyl)methyl]-2-[(2S)-2-(1,3-thiazol-2-yl)pyrrolidin-1-yl]-3H-imidazo[4,5-c]pyridin-6-yl}-1,2,4-oxadiazol-5(4H)-one], which IC50 is on record?
**A.** < 1 nM
